*1 amine or outer side, *2 acyl side, *3 side chain or, on linkers, in order; H or OH if unused. Where a SMILES comes first, the peptide text is derived from it. Bridges are numbered along the chain shown (N, C = ends). [ ]: non-standard residue; d: D form. The star is where a group is joined. X24 = O=C([C@H](Cc1ccc(C(F)(F)F)cc1)N(CCC(F)(F)F)[*:1])[*:2]; X6 = CC(C)(C)CCN([C@@H](Cc1ccc(C(F)(F)F)cc1)C(=O)[*:2])[*:1]; X21 = O=C([C@H](Cc1ccc(C(F)(F)F)cc1)N(CC1CCCC1)[*:1])[*:2]; hPhe(3-Cl-4-CF3) = N[C@@H](CCc1ccc(C(F)(F)F)c(Cl)c1)C(=O)O; X23 = CC(C)CN([C@@H](Cc1ccc(C(F)(F)F)cc1)C(=O)[*:2])[*:1]; X37 = O=C([C@H](Cc1ccc(C(F)(F)F)cc1)N(CC1CCC1)[*:1])[*:2]; X18 = C=CCCN([C@@H](Cc1ccc(C(F)(F)F)cc1)C(=O)[*:2])[*:1]; X31 = O=C([C@H](Cc1ccc(C(F)(F)F)cc1)N(CC1CC1)[*:1])[*:2]; X42 = COCCCN([C@@H](Cc1ccc(C(F)(F)F)cc1)C(=O)[*:2])[*:1]; X11 = C=CCN([C@@H](Cc1ccc(C(F)(F)F)cc1)C(=O)[*:2])[*:1]; X17 = CCCCN([C@@H](Cc1ccc(C(F)(F)F)cc1)C(=O)[*:2])[*:1]; X28 = C#CCN([C@@H](Cc1ccc(C(F)(F)F)cc1)C(=O)[*:2])[*:1]; X32 = COCCN([C@@H](Cc1ccc(C(F)(F)F)cc1)C(=O)[*:2])[*:1]; NMeGly(cPent) = CN[C@H](C(=O)O)C1CCCC1; NMeD = CN[C@@H](CC(=O)O)C(=O)O; NMeL = CN[C@@H](CC(C)C)C(=O)O; Morpholide = C1CN(*)CCO1; NMeA = CN[C@@H](C)C(=O)O; Ac5c = NC1(C(=O)O)CCCC1; Aze = O=C(O)[C@@H]1CCN1; Sar = CNCC(=O)O
How the values were obtained:
[1] = target: GDP-bound NRAS wild-type protein (Homo sapiens, UniProt P01111); assay: Binding to NRAS by surface plasmon resonance (SPR), Single Cycle Kinetics; conditions: KD ratio NRAS/KRAS, SPR
GDP-bound NRAS wild-type protein, sequence (P01111 whole entry): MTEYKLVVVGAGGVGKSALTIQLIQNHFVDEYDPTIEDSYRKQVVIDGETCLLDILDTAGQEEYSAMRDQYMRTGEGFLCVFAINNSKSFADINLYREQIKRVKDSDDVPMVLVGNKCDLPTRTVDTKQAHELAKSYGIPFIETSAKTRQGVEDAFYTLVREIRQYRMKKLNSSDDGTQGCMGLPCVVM

[2] = target: GDP-bound HRAS wild-type protein (Homo sapiens, UniProt P01112); assay: Binding to HRAS by surface plasmon resonance (SPR), Single Cycle Kinetics; conditions: KD ratio HRAS/KRAS, SPR
GDP-bound HRAS wild-type protein, sequence (P01112 whole entry): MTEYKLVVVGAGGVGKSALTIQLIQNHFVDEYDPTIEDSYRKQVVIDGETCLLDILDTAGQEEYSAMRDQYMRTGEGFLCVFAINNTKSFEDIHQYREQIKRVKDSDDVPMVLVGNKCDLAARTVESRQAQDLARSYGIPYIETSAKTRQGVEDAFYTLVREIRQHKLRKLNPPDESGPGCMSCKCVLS

SMILES | NRAS/KRAS (ratio of KD for GDP-bound NRAS wild-type to KD for KRAS) [1] | HRAS/KRAS (ratio of KD for GDP-bound HRAS wild-type to KD for KRAS) [2]
CC[C@H](C)[C@@H]1NC(=O)[C@H](CC(C)C)N(C)C(=O)C[C@@H](C(=O)N2CCOCC2)N(C)C(=O)[C@H](C2CCCC2)N(C)C(=O)C2(CCCC2)NC(=O)[C@@H]2CCCN2C(=O)[C@H](CCc2ccc(C(F)(F)F)c(Cl)c2)NC(=O)CN(C)C(=O)[C@H](Cc2ccc(C(F)(F)F)cc2)N(CC2CCCC2)C(=O)[C@@H]2CCN2C(=O)[C@H](C)N(C)C1=O [PP0110] ([NMeL]I[NMeA][Aze][X21][Sar][hPhe(3-Cl-4-CF3)]P[Ac5c][NMeGly(cPent)][NMeD]-Morpholide; lactam N-11) | C (A compound having a KD ratio of 0.1 or more and less than 3 is denoted as C) | B (a compound having 3 or more and less than 10 is denoted as B)
CC[C@H](C)[C@@H]1NC(=O)[C@H](CC(C)C)N(C)C(=O)C[C@@H](C(=O)N2CCOCC2)N(C)C(=O)[C@H](C2CCCC2)N(C)C(=O)C2(CCCC2)NC(=O)[C@@H]2CCCN2C(=O)[C@H](CCc2ccc(C(F)(F)F)c(Cl)c2)NC(=O)CN(C)C(=O)[C@H](Cc2ccc(C(F)(F)F)cc2)N(CCC(C)(C)C)C(=O)[C@@H]2CCN2C(=O)[C@H](C)N(C)C1=O [PP0113] ([NMeL]I[NMeA][Aze][X6][Sar][hPhe(3-Cl-4-CF3)]P[Ac5c][NMeGly(cPent)][NMeD]-Morpholide; lactam N-11) | C (A compound having a KD ratio of 0.1 or more and less than 3 is denoted as C) | B (a compound having 3 or more and less than 10 is denoted as B)
C=CCN1C(=O)[C@@H]2CCN2C(=O)[C@H](C)N(C)C(=O)[C@H]([C@@H](C)CC)NC(=O)[C@H](CC(C)C)N(C)C(=O)C[C@@H](C(=O)N2CCOCC2)N(C)C(=O)[C@H](C2CCCC2)N(C)C(=O)C2(CCCC2)NC(=O)[C@@H]2CCCN2C(=O)[C@H](CCc2ccc(C(F)(F)F)c(Cl)c2)NC(=O)CN(C)C(=O)[C@@H]1Cc1ccc(C(F)(F)F)cc1 [PP0114] ([NMeL]I[NMeA][Aze][X11][Sar][hPhe(3-Cl-4-CF3)]P[Ac5c][NMeGly(cPent)][NMeD]-Morpholide; lactam N-11) | C (A compound having a KD ratio of 0.1 or more and less than 3 is denoted as C) | C (A compound having a KD ratio of 0.1 or more and less than 3 is denoted as C)
C=CCCN1C(=O)[C@@H]2CCN2C(=O)[C@H](C)N(C)C(=O)[C@H]([C@@H](C)CC)NC(=O)[C@H](CC(C)C)N(C)C(=O)C[C@@H](C(=O)N2CCOCC2)N(C)C(=O)[C@H](C2CCCC2)N(C)C(=O)C2(CCCC2)NC(=O)[C@@H]2CCCN2C(=O)[C@H](CCc2ccc(C(F)(F)F)c(Cl)c2)NC(=O)CN(C)C(=O)[C@@H]1Cc1ccc(C(F)(F)F)cc1 [PP0115] ([NMeL]I[NMeA][Aze][X18][Sar][hPhe(3-Cl-4-CF3)]P[Ac5c][NMeGly(cPent)][NMeD]-Morpholide; lactam N-11) | C (A compound having a KD ratio of 0.1 or more and less than 3 is denoted as C) | C (A compound having a KD ratio of 0.1 or more and less than 3 is denoted as C)
C#CCN1C(=O)[C@@H]2CCN2C(=O)[C@H](C)N(C)C(=O)[C@H]([C@@H](C)CC)NC(=O)[C@H](CC(C)C)N(C)C(=O)C[C@@H](C(=O)N2CCOCC2)N(C)C(=O)[C@H](C2CCCC2)N(C)C(=O)C2(CCCC2)NC(=O)[C@@H]2CCCN2C(=O)[C@H](CCc2ccc(C(F)(F)F)c(Cl)c2)NC(=O)CN(C)C(=O)[C@@H]1Cc1ccc(C(F)(F)F)cc1 [PP0116] ([NMeL]I[NMeA][Aze][X28][Sar][hPhe(3-Cl-4-CF3)]P[Ac5c][NMeGly(cPent)][NMeD]-Morpholide; lactam N-11) | C (A compound having a KD ratio of 0.1 or more and less than 3 is denoted as C) | C (A compound having a KD ratio of 0.1 or more and less than 3 is denoted as C)
CC[C@H](C)[C@@H]1NC(=O)[C@H](CC(C)C)N(C)C(=O)C[C@@H](C(=O)N2CCOCC2)N(C)C(=O)[C@H](C2CCCC2)N(C)C(=O)C2(CCCC2)NC(=O)[C@@H]2CCCN2C(=O)[C@H](CCc2ccc(C(F)(F)F)c(Cl)c2)NC(=O)CN(C)C(=O)[C@H](Cc2ccc(C(F)(F)F)cc2)N(CCC(F)(F)F)C(=O)[C@@H]2CCN2C(=O)[C@H](C)N(C)C1=O [PP0117] ([NMeL]I[NMeA][Aze][X24][Sar][hPhe(3-Cl-4-CF3)]P[Ac5c][NMeGly(cPent)][NMeD]-Morpholide; lactam N-11) | B (a compound having 3 or more and less than 10 is denoted as B) | B (a compound having 3 or more and less than 10 is denoted as B)
CC[C@H](C)[C@@H]1NC(=O)[C@H](CC(C)C)N(C)C(=O)C[C@@H](C(=O)N2CCOCC2)N(C)C(=O)[C@H](C2CCCC2)N(C)C(=O)C2(CCCC2)NC(=O)[C@@H]2CCCN2C(=O)[C@H](CCc2ccc(C(F)(F)F)c(Cl)c2)NC(=O)CN(C)C(=O)[C@H](Cc2ccc(C(F)(F)F)cc2)N(CCOC)C(=O)[C@@H]2CCN2C(=O)[C@H](C)N(C)C1=O [PP0118] ([NMeL]I[NMeA][Aze][X32][Sar][hPhe(3-Cl-4-CF3)]P[Ac5c][NMeGly(cPent)][NMeD]-Morpholide; lactam N-11) | C (A compound having a KD ratio of 0.1 or more and less than 3 is denoted as C) | C (A compound having a KD ratio of 0.1 or more and less than 3 is denoted as C)
CC[C@H](C)[C@@H]1NC(=O)[C@H](CC(C)C)N(C)C(=O)C[C@@H](C(=O)N2CCOCC2)N(C)C(=O)[C@H](C2CCCC2)N(C)C(=O)C2(CCCC2)NC(=O)[C@@H]2CCCN2C(=O)[C@H](CCc2ccc(C(F)(F)F)c(Cl)c2)NC(=O)CN(C)C(=O)[C@H](Cc2ccc(C(F)(F)F)cc2)N(CCCOC)C(=O)[C@@H]2CCN2C(=O)[C@H](C)N(C)C1=O [PP0119] ([NMeL]I[NMeA][Aze][X42][Sar][hPhe(3-Cl-4-CF3)]P[Ac5c][NMeGly(cPent)][NMeD]-Morpholide; lactam N-11) | C (A compound having a KD ratio of 0.1 or more and less than 3 is denoted as C) | C (A compound having a KD ratio of 0.1 or more and less than 3 is denoted as C)
CCCCN1C(=O)CN(C)C(=O)CN(C)C(=O)[C@H]([C@@H](C)CC)NC(=O)[C@H](CC(C)C)N(C)C(=O)C[C@@H](C(=O)N2CCOCC2)N(C)C(=O)[C@H](C2CCCC2)N(C)C(=O)C2(CCCC2)NC(=O)[C@@H]2CCCN2C(=O)[C@H](CCc2ccc(C(F)(F)F)c(Cl)c2)NC(=O)CN(C)C(=O)[C@@H]1Cc1ccc(C(F)(F)F)cc1 [PP0120] ([NMeL]I[Sar][Sar][X17][Sar][hPhe(3-Cl-4-CF3)]P[Ac5c][NMeGly(cPent)][NMeD]-Morpholide; lactam N-11) | B (a compound having 3 or more and less than 10 is denoted as B) | C (A compound having a KD ratio of 0.1 or more and less than 3 is denoted as C)
CC[C@H](C)[C@@H]1NC(=O)[C@H](CC(C)C)N(C)C(=O)C[C@@H](C(=O)N2CCOCC2)N(C)C(=O)[C@H](C2CCCC2)N(C)C(=O)C2(CCCC2)NC(=O)[C@@H]2CCCN2C(=O)[C@H](CCc2ccc(C(F)(F)F)c(Cl)c2)NC(=O)CN(C)C(=O)[C@H](Cc2ccc(C(F)(F)F)cc2)N(CC(C)C)C(=O)CN(C)C(=O)CN(C)C1=O [PP0121] ([NMeL]I[Sar][Sar][X23][Sar][hPhe(3-Cl-4-CF3)]P[Ac5c][NMeGly(cPent)][NMeD]-Morpholide; lactam N-11) | C (A compound having a KD ratio of 0.1 or more and less than 3 is denoted as C) | C (A compound having a KD ratio of 0.1 or more and less than 3 is denoted as C)
CC[C@H](C)[C@@H]1NC(=O)[C@H](CC(C)C)N(C)C(=O)C[C@@H](C(=O)N2CCOCC2)N(C)C(=O)[C@H](C2CCCC2)N(C)C(=O)C2(CCCC2)NC(=O)[C@@H]2CCCN2C(=O)[C@H](CCc2ccc(C(F)(F)F)c(Cl)c2)NC(=O)CN(C)C(=O)[C@H](Cc2ccc(C(F)(F)F)cc2)N(CC2CC2)C(=O)CN(C)C(=O)CN(C)C1=O [PP0122] ([NMeL]I[Sar][Sar][X31][Sar][hPhe(3-Cl-4-CF3)]P[Ac5c][NMeGly(cPent)][NMeD]-Morpholide; lactam N-11) | C (A compound having a KD ratio of 0.1 or more and less than 3 is denoted as C) | C (A compound having a KD ratio of 0.1 or more and less than 3 is denoted as C)
CC[C@H](C)[C@@H]1NC(=O)[C@H](CC(C)C)N(C)C(=O)C[C@@H](C(=O)N2CCOCC2)N(C)C(=O)[C@H](C2CCCC2)N(C)C(=O)C2(CCCC2)NC(=O)[C@@H]2CCCN2C(=O)[C@H](CCc2ccc(C(F)(F)F)c(Cl)c2)NC(=O)CN(C)C(=O)[C@H](Cc2ccc(C(F)(F)F)cc2)N(CC2CCC2)C(=O)CN(C)C(=O)CN(C)C1=O [PP0123] ([NMeL]I[Sar][Sar][X37][Sar][hPhe(3-Cl-4-CF3)]P[Ac5c][NMeGly(cPent)][NMeD]-Morpholide; lactam N-11) | B (a compound having 3 or more and less than 10 is denoted as B) | C (A compound having a KD ratio of 0.1 or more and less than 3 is denoted as C)
